Laboratory results: patent US5728684A, “Determination of prodrugs metabolizable by the liver and therapeutic use thereof” (priority 1994, dated 1998)
Entries after “also recorded” stand apart in the source; their conditions may differ.

Experiments:
aldehyde oxidase = experiment: Substrate specificity of the conversion of RPdR to RUdR; assay type: in vitro ADME, rat; conditions: substrate 180 μM; 2 to 4 separate experiments; in nmol/mg/min
Method: Rat hepatic tissue was washed with ice-cold 1.15% KCl and blotted dry. The tissue was then homogenized with a tissue homogenizer, in a volume of 1.15% KCl that was 3 times the tissue weight, to form a 25% (w/v) homogenate. The homogenate was then centrifuged at 10,000 g for 10 minutes at 4° C. The resulting supernatant was filtered through Miracloth (similar to cheese cloth) then dialyzed overnight against 50 mM Tris-HCl buffer pH 7.5 and stored at -80° C. before use. Rat hepatocytes were obtained by a perfusion technique then the cells were extracted with 10 mM phosphate buffer, pH 7.5, containing 1M KCl and dialyzed for 4 hours against 50 mM Tris-HCl buffer pH 7.5.
For the standard assay condition, the reaction mixture contained 50 mM Tris-HCl, pH 7.5, 1 mM EDTA, 180 μM of IPdR (or its analogs) and approximately 0.01 mg protein of 10,000 g supernatant of tissue homogenate in a final volume of 500 μl and the incubation was at 37° C. for 10 minutes unless specified otherwise. 300 μl of reaction mixture was removed at the end of incubation and mixed with 630 μl acetonitrile then agitated. The precipitated protein were removed by centrifugation and the supernatant was lyophilized to dryness. The samples were reconstituted to the original aliquot volume with the HPLC mobile phase buffer and analyzed on a Alltech RP-18 column. IPdR, IUdR and IU were detected at a UV absorption wavelength of 230 nm, and IPdR was also detected at a UV absorption wavelength of 335 nm. The mobile phase was 10% acetonitrile/90%mM ammonium acetate, pH 6.8 and the flow rate was 1 ml/minute. Standard curves of IPdR and IUdR were established from the integration value of known concentrations.
Several 2-pyrimidinone deoxyribose analogs were examined for the conversion to their deoxyuridine counterparts. […] Nevertheless the relative Vmax for IPdR in the reaction at pH 7.5 and pH 9.5 is the same. […] The synthetic substrates for aldehyde oxidase appear to be better than its natural substrates, N^1 -methylnicotinamide and acetaldehyde, as judged by the potency of inhibition of N^1 -methylnicotinamide and acetaldehyde to the IPdR oxidation reaction (Table IV). The rate of reactivity of the liver enzyme with different IPdR analogs follows the order EPdR, IP, IPdR, 5-bromo-2-pyrimidinone deoxyribose (BPdR) and 5-methyl-2-pyrimidinone deoxyribose (MPdR) or 5-ethyl-2-pyrimidinone deoxyribose (EtPdR) (Table V). Electronegative substituents in the 5-position seemed to increase the substrate activity in this oxidation reaction.
Substrate specificity of the conversion of […]

Xanthine oxidase = conditions: shown previously (Lewandowski et al. 1989); cited from earlier work
IPdR oxidase = experiment: IUdR synthesis by partially purified IPdR oxidase; assay type: biochemical; conditions: 37° C., rat liver enzyme purified 380 fold
Method: Differential fractionation centrifugation was used in an attempt to localize this IPdR conversion enzyme activity in the liver homogenate. The enzyme activity assay was performed on each fraction. […] Further purification was achieved by use of DEAE cellulose column chromatography, blue Sepharose column chromatography and glycerol gradient centrifugation in this order. This IPdR oxidase activity was purified 380 fold starting from the crude extracts of rat liver. The partially purified enzyme catalyzed IUdR synthesis at a rate of 3.8 μmoles per minute per milligram of protein at 37° C. under these conditions. The apparent molecular weight of this enzyme in both rats and humans as determined by centrifugation on a 20 to 40% glycerol gradient is approximately 280,000 dalton. Neither cofactor nor divalent cations requirement has been found for the rat liver enzyme or the human liver enzyme.

liver and tumor tissue = experiment: Thymidine replacement in liver and tumor tissue of athymic nude mice having metastatic tumors; assay type: in vivo; conditions: 100, 250, 500 mg/kg/d (FIG. 7)
Method: Mice were administered daily dosages of 0, 100, 250 and 500 mg/kg/d to determine thymidine replacement in liver and tumor tissue. The results presented in FIG. 7 are presented as mean percent thymidine replacement ± one standard error of the mean. n≥3 (control tumors n=2).

thymidine phosphorylase = conditions: cited from earlier work
rat liver homogenate = experiment: HPLC time course of conversion of IPdR by rat liver homogenate; assay type: in vitro ADME
Method: FIGS. 1A-1C depict HPLC profiles of the conversion of IPdR to IUdR by liver homogenate. IPdR was incubated with rat liver homogenate. For control reactions, a portion of the supernatant was boiled for 5 minutes to inactivate all enzymes before use. The assay condition was as described hereinafter except 60 μl of the 100,000 g×60 minute supernatant (equivalent to approximately 0.5 mg protein/ml) was used in a reaction volume of 1500 μl . […]
For the standard assay condition, the reaction mixture contained 50 mM Tris-HCl, pH 7.5, 1 mM EDTA, 180 μM of IPdR (or its analogs) and approximately 0.01 mg protein of 10,000 g supernatant of tissue homogenate in a final volume of 500 μl and the incubation was at 37° C. for 10 minutes unless specified otherwise. […] The samples were reconstituted to the original aliquot volume with the HPLC mobile phase buffer and analyzed on a Alltech RP-18 column. IPdR, IUdR and IU were detected at a UV absorption wavelength of 230 nm, and IPdR was also detected at a UV absorption wavelength of 335 nm. […]
To study the conversion of IPdR to IUdR by liver enzyme the metabolites of IPdR were analyzed after incubation with a supernatant of rat liver homogenate using a reverse phase HPLC technique. IPdR and IUdR could be detected at an absorption wavelength of 230 nm but only IPdR could be detected at 335 nm. […]

O=c1ncc(I)cn1[C@H]1C[C@H](O)[C@@H](CO)O1 [IPdR, 1-(2-deoxy-β-D-ribofuranosyl)-5-(iodo)-2-pyrimidinone]
Conversion of RPdR to RUdR (aldehyde oxidase): 11 ± 2
conversion of IPdR to IUdR by xanthine oxidase (Xanthine oxidase): could not be converted to IUdR
rate of IUdR synthesis by partially purified enzyme (IPdR oxidase): 3.8 μmoles per minute per milligram of protein
percent thymidine replacement in tumor (liver and tumor tissue): increasing tumor incorporation; also recorded: increasing percent replacement
percent incorporation in liver (liver and tumor tissue; normal liver): negligible; also recorded: very small percent incorporation
substrate for thymidine phosphorylase (thymidine phosphorylase): not substrates for thymidine phosphorylase
conversion of IPdR to IUdR over time (rat liver homogenate; 37° C., 0, 15, 30 minutes (FIG. 1)): time dependent conversion of IPdR to IUdR
product produced from IPdR (rat liver homogenate; IUdR): IUdR appeared to be the only product
